In ChEMBL document CHEMBL1201862, “PubChem BioAssay data set” (2004):
Activity calls are given as the source filed them.

Key:
[1] = Luminescence Cell-Based Dose Response to Identify Activators of 5'UTR Stem-Loop Driven Prion Protein mRNA Translation in H4-C Neuroglioblastoma Cells. [Related pubchem assays: 1829 (Project Summary), 1814 (Primary HTS)]; format: functional
[2] = Luminescence Cell-Based Dose Confirmation HTS to Identify Activators of 5'UTR Stem-Loop Driven Alpha-Synuclein mRNA Translation in H4 Neuroglioblastoma Cells. [Related pubchem assays: 1829 (Project Summary), 1814 (Primary HTS)]; format: functional
[3] = Luminescence Cell-Based Dose Response HTS to Identify Activators of Luciferase Translation or Activity in H4 […] Cells. [Related pubchem assays: 1829 (Project Summary), 1814 (Primary HTS)]; format: functional
H4 = assay: Luminescence Cell-Based Dose Response HTS to Identify Activators of 5'UTR Stem-Loop Driven Prion Protein mRNA Translation in H4 Neuroglioblastoma Cells. [Related pubchem assays: 1829 (Project Summary), 1814 (Primary HTS)]; format: functional; conditions: Homo sapiens
[4] = Luminescence Cell-Based Dose Response to Identify Activators of Luciferase Translation or Activity in H4-C Neuroglioblastoma Cells. [Related pubchem assays: 1829 (Project Summary), 1814 (Primary HTS)]; format: functional
[5] = Luminescence Cell-Based Dose Confirmation to Identify Activators of 5'UTR Stem-Loop Driven Alpha-Synuclein mRNA Translation in H4 Neuroglioblastoma Cells. [Related pubchem assays: 1829 (Project Summary), 1814 (Primary HTS)]; format: functional
Cytochrome P450 2C9 [6] = target: T1, Cytochrome P450 2C9 (Homo sapiens, UniProt P11712); conditions: Potency
[7] = target: T2, Eukaryotic translation initiation factor 2-alpha kinase 3 (Homo sapiens, UniProt Q9NZJ5); assay: Dose response cell-based high-throughput screening assay to measure PERK inhibition. [Related pubchem assays: 1416 ]; format: functional
T2 sequence (Q9NZJ5 whole entry): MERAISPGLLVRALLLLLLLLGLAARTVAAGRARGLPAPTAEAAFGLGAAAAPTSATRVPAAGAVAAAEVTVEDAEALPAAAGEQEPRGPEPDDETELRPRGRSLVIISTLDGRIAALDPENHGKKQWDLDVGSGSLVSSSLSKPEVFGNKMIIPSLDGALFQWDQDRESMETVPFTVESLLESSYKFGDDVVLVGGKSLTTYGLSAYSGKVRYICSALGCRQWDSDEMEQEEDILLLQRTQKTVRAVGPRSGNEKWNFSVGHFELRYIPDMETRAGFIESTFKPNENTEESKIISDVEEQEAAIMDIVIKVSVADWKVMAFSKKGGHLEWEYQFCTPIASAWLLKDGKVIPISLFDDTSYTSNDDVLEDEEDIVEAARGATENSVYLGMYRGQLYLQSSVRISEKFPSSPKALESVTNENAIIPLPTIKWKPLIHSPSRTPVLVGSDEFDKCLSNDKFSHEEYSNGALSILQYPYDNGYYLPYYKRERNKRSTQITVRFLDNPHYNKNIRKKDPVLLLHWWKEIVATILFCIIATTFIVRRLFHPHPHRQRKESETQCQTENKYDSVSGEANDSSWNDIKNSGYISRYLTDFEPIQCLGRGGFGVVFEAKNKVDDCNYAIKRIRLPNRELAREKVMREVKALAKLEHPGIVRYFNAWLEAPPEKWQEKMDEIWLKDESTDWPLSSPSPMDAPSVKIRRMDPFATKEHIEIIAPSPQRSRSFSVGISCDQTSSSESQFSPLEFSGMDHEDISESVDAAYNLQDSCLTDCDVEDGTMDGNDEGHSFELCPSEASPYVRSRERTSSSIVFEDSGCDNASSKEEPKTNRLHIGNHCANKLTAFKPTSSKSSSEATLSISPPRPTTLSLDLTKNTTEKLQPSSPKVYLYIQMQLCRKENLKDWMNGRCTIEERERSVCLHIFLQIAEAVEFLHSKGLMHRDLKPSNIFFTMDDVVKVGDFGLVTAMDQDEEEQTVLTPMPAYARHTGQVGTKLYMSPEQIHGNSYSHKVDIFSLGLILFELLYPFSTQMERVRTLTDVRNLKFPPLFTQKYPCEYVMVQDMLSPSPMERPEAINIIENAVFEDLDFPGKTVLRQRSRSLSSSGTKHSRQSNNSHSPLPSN

[8] = target: T2, Eukaryotic translation initiation factor 2-alpha kinase 3; assay: Counterscreen assay for PERK inhibitors: Dose response cell-based high throughput screening assay to measure inhibition of PERK at 6 hours. [Related pubchem assays: 1522, 1416 ]; format: functional
Protein Rev = Protein Rev (Human immunodeficiency virus type 1 group M subtype B (isolate HXB2)(HIV-1), UniProt P04618); assay: blockers of HIV Rev/RRE RNA complex – biochemical, fluorescence polarization, HIV-1, dose response (AID 434976); set-up: species or system Human immunodeficiency virus 1
[9] = target: Female germline-specific tumor suppressor gld-1 (Caenorhabditis elegans, UniProt Q17339); assay: blockers of GLD-1/TGE RNA complex formation – biochemical, fluorescence polarization, C. elegans, dose response (AID 2802);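 further: fluorescence polarization of labeled TGE RNA bound by purified gld-1 protein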
[10] = target: T3, Polyadenylate-binding protein 1 (Homo sapiens, UniProt P11940); assay: MLLE binding blockers, Cy5 peptide tracer – biochemical, fluorescence polarization, Cy5-PAM2 peptide, secondary, miRNA deadenylation inhibitor project, dose response (AID 602260); format: functional; conditions: read-out: IC50_Mean
[11] = target: T3, Polyadenylate-binding protein 1; assay: MLLE domain peptide-binding blockers, IC50 – biochemical, fluorescence polarization, FITC-PAM2 peptide, dose response (AID 602259); format: functional; conditions: read-out: IC50_Mean
[12] = target: Eukaryotic translation initiation factor 4H (Homo sapiens, UniProt Q15056); assay: eIF4H binding inhibition – biochemical, uHTS, fluorescence polarization, translation initiation inhibitor project, primary screen (AID 2012)
[13] = target: T3, Polyadenylate-binding protein 1; assay: blockers of PABP interaction with poly(A) – biochemical, fluorescence polarization, […] (AID 2014)
Bcl-2-like protein 10 = Bcl-2-like protein 10 (Homo sapiens, UniProt Q9HD36); assay: Bcl-B/TR3 peptide binding disruption – biochemical, fluorescence polarization, FITC-TR3 peptide, selectivity assay for Bfl-1 inhibitor project, primary screen (AID 748);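 further: fluorescence polarization from a fluorescein-labelled TR3 peptide binding purified Bcl-B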
[14] = viability of PTEN-deleted HCT116 cells – cell-based, HCT116 PTEN knockout, dose response (AID 1047); format: functional;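 further: HCT116 colon tumor cells with PTEN knocked out; cells exposed to compound for 60 hours before readout; potency for loss of cell viability measured by luminescence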
[15] = viability of HCT116 lacking mutant beta-catenin – cell-based, human colon tumor, dose response (AID 1045); format: functional;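 further: HCT116 colon tumor cells with beta catenin knocked out; cells exposed to compound for 60 hours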
Nonstructural protein 1 = Nonstructural protein 1 (Influenza A virus, UniProt Q194T2); format: functional, Influenza A virus (A/California/07/2009(H1N1))
Cytochrome P450 2C19 = Cytochrome P450 2C19 (Homo sapiens, UniProt P33261); assay: Cytochrome panel assay with activity outcomes. Panel member name: p450-cyp2c19 Compounds with AC50 equal or less than 10 uM are considered active; format: functional
Cytochrome P450 2C9 [16] = target: T1, Cytochrome P450 2C9

T3 sequence (P11940 whole entry, the tested form may be a part): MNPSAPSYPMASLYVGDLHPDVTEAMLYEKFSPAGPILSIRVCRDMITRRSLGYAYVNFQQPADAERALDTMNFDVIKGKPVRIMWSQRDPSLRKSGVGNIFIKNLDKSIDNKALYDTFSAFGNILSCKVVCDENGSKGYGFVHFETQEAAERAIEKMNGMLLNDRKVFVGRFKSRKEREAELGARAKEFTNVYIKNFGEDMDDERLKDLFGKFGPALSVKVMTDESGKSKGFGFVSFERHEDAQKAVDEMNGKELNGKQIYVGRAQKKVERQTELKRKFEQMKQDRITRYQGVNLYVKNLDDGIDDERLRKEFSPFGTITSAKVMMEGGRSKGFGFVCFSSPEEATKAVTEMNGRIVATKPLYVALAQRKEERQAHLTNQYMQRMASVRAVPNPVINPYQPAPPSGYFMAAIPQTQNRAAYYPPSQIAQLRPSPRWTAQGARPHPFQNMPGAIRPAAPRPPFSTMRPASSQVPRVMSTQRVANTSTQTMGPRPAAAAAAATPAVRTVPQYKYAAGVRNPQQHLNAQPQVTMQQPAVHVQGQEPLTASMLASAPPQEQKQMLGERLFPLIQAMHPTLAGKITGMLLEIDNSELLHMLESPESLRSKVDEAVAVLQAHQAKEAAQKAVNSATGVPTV
T1 sequence (P11712 whole entry): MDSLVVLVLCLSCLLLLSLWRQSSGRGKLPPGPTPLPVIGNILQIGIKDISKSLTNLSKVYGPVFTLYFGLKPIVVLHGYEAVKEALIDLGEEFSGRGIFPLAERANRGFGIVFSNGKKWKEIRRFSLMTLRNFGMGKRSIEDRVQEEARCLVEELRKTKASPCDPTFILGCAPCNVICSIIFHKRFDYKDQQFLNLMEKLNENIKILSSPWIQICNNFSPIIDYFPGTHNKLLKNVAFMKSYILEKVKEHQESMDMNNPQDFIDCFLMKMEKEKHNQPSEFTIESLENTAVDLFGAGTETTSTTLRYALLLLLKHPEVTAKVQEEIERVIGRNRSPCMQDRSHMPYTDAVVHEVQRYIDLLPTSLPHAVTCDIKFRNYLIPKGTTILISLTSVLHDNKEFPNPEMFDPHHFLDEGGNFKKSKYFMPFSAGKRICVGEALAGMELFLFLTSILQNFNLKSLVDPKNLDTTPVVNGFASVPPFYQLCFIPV
Sequence of Nonstructural protein 1 (Q194T2 whole entry): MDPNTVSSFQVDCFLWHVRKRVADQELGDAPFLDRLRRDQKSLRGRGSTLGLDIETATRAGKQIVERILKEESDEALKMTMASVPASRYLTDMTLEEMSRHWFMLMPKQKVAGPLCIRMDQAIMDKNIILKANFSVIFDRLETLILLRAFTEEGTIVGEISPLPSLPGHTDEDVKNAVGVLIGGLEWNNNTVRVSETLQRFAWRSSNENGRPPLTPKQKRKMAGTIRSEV
Sequence of Female germline-specific tumor suppressor gld-1 (Q17339 whole entry): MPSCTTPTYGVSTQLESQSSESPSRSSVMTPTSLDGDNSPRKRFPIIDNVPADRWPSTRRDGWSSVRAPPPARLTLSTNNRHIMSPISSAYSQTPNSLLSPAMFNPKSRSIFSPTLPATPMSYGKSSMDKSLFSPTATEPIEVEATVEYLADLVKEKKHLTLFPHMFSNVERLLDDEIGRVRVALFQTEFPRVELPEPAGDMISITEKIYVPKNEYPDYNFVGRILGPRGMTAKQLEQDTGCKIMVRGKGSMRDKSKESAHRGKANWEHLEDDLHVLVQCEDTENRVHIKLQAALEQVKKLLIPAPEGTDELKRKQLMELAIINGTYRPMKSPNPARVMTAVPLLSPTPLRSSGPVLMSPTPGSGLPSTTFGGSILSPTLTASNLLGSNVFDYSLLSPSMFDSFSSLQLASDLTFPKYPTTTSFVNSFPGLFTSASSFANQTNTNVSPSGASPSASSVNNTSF
Sequence of Bcl-2-like protein 10 (Q9HD36 whole entry): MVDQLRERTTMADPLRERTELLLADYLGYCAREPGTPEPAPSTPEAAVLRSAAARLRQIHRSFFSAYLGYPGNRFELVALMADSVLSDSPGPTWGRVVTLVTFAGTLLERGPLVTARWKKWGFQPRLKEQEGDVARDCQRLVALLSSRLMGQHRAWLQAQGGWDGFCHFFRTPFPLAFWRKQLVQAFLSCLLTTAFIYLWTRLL
Sequence of Cytochrome P450 2C19 (P33261 whole entry): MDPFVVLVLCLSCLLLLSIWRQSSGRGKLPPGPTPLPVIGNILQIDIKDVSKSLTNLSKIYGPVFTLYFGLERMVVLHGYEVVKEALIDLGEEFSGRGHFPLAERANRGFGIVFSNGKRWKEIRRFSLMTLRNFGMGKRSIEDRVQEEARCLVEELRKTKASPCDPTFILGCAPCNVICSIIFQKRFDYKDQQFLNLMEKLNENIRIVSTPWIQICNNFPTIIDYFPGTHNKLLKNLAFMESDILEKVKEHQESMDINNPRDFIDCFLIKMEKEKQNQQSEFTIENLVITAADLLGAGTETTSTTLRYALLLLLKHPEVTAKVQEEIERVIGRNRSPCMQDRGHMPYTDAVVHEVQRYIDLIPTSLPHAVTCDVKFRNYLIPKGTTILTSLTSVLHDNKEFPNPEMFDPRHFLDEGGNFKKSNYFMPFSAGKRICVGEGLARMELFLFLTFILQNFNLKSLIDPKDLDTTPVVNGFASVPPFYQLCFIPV
Sequence of Protein Rev (P04618 whole entry): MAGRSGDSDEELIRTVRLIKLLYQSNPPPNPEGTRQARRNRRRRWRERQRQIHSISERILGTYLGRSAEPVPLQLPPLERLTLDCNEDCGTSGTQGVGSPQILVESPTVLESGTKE

COc1ccc(/C=N/NC(=O)c2ccc[nH]2)cc1
EC50 [1]: 0.46 µM (active) | EC50 [2]: 0.155 µM (active) | EC50 [3]: 0.114 µM (active) | EC50 (H4): < 0.1 µM (active) | EC50 [4]: 0.324 µM (active) | EC50 [5]: 0.343 µM (active)

CC(C)[C@@H](CC(=O)N[C@@H]1CCNC[C@H]1C(=O)N[C@H](CC(=O)N[C@@H](CCC(=O)O)CC(=O)O)Cc1c[nH]c2ccccc12)NC(=O)C[C@H](CO)NC(=O)[C@@H]1CNCC[C@H]1N
AC50 (Cytochrome P450 2C9 [6]): 39.8 µM (inconclusive)

Cc1ccccc1NC(=O)NCCCN1CCCC1
EC50 [7]: > 55.7 µM (not active) | EC50 [8]: > 55.7 µM (not active)

CN(C(=O)CN1C(=O)c2cccc(N)c2C1=O)C1CCCCC1
IC50 (Protein Rev): > 8.39 µM (active) | IC50 [9]: 4.29 µM (active) | IC50 [10]: > 66 µM (inactive) | IC50 [11]: 32.6 µM (inactive)

Cc1ccc[n+](CC(=O)c2ccccc2)c1
IC50 [12]: > 100 µM (inactive) | IC50 [13]: 5.7 µM (active)

COc1ccc(-c2coc3c(CN4CCCCC4)c(O)c(CN4CCCCC4)c(O)c3c2=O)cc1
IC50 (Bcl-2-like protein 10): 79.7 µM (inactive) | EC50 [14]: 34.4 µM (active) | EC50 [15]: 32.6 µM (active)

O=C(Cn1cnc([N+](=O)[O-])n1)N/N=C/c1ccccc1O
EC50 [7]: > 55.7 µM (not active) | EC50 [8]: > 55.7 µM (not active) | IC50 (Nonstructural protein 1): 9.05 µM (active) | AC50 (Cytochrome P450 2C19): inconclusive | AC50 (Cytochrome P450 2C9 [16]): 10 µM (inconclusive)
